# Experiments:
# Assay in all cases: Kirby-Bauer agar disk diffusion
# Staph aureus 525 = assay type: cell-based, Staphylococcus aureus; conditions: for Zones of Inhibition: Table 4, 20 μg disk loading; for Kirby-Bauer Disc Diffusion Test Results: Table 5
# MRSA USF657 = assay type: cell-based, Staphylococcus aureus; design: Kirby-Bauer Disc Diffusion Test Results: unit not given here; conditions: for Zones of Inhibition: Table 4, 20 μg disk loading; for Kirby-Bauer Disc Diffusion Test Results: Table 5, beta-lactamase producing strain; for zone of growth inhibition, average diameter: Table 3, 6-mm disks, 20 μg test compound, 24 hours
# Description: (§1) In this study, a selection of N-methylthio-substituted β-lactams are examined for antimicrobial activity by the Kirby-Bauer disk diffusion method on agar plates. A variety of common Gram-positive and Gram-negative bacteria are tested, including clinical isolates of methicillin-resistant Staphylococcus aureus (MRSA).
# (§2) Compound susceptibility measurements are obtained from agar disk diffusion experiments using 6-mm air-dried disks impregnated with 20 μg of the test compound. The values correspond to the average diameters in mm (triplicate experiments) for the zone of growth inhibition observed after 24 h. Staphylococcus aureus (ATCC 25923) and β-lactamase-producing strains of methicillin-resistant Staphylococcus aureus (labeled as MRSA USF652-659) are obtained from Lakeland Regional Medical Center, Lakeland, Fla. Staphylococcus epidermidis, Staphylococcus simulans, Staphylococcus simulans, and Microcossus luteus are clinical isolates from University of South Florida Medical Clinic. Nieserria gonnorhoeae (β-lactamase positive) is obtained from the Tampa Branch State Laboratory. PenG is penicillin G (potassium salt). Table 1 provides the zones of growth inhibition that are observed after 24 hours using the lactams of FIGS. 1A-1I (designated A-I, respectively).
# (§3) Of particular interest is the ability of these compounds to retain their effectiveness against penicillin-resistant strains of Staphylococcus aureus, a dangerous hospital-borne pathogen which is becoming difficult to treat with conventional antibiotic therapy. The lactams were screened for antibacterial activity by disk diffusion on agar plates, and the resulting zones of bacterial growth inhibition measured (see Table 3; each lactam is designated by Figure number).
# (§4) Table 3: Growth inhibition zones obtained from agar disk diffusion experiments using 6-mm air-dried disks impregnated with 20 μg of the test compound. The values correspond to the average diameters in mm for the zone of growth inhibition observed after 24 hours. Staphylococcus aureus and β-lactamase-producing strains of methicillin-resistant Staphylococcus aureus (labeled MRSA USF652-659) are obtained from a clinical testing laboratory at Lakeland Regional Medical Center, Lakeland, Fla.
# (§5) Those compounds were tested for bioactivity using the Kirby-Bauer test on agar plates.
# (§6) Biological activity is enhanced against β-lactamase producing strains of methicillin-resistant Staphylococcus aureus (MRSA). With the lactam shown in FIG. 11A serving as a lead structure, a series of other C-4 substituted derivatives (FIGS. 11B-11I) were investigated herein. Table 5 lists microbiological data for β-lactams from Kirby-Bauer Disc Diffusion Test Results (with each lactam identified by Figure number).
# (§7) Scheme I summarizes the synthesis of ester compounds 4. 4-Carboxy benzaldehyde (1) is coupled with the appropriate alcohol using DCC/DMAP, followed by reaction with p-anisidine, to give imines 2. Staudinger coupling of methoxyacetyl chloride with imine 2 gives N-aryl protected β-lactam 3. N-Dearylation of β-lactam 3 with ceric ammonium nitrate and methylthiolation with N-(methylthio)phthalimide affords N-methylthio β-lactams 4. These compounds are tested for antibacterial activity by the Kirby-Bauer method of disc diffusion on agar plates. [drawing 7]
# MRSA USF658 = assay type: cell-based, Staphylococcus aureus; design: Kirby-Bauer Disc Diffusion Test Results: unit not given here; conditions: for Zones of Inhibition: Table 4, 20 μg disk loading; for Kirby-Bauer Disc Diffusion Test Results: Table 5, beta-lactamase producing strain; for zone of growth inhibition, average diameter: Table 3, 6-mm disks, 20 μg test compound, 24 hours
# Description: as §1, §2, §3, §4, §5, §6, §7
# MRSA USF654 = assay type: cell-based, Staphylococcus aureus; design: Kirby-Bauer Disc Diffusion Test Results: unit not given here; conditions: for Zones of Inhibition: Table 4, 20 μg disk loading; for Kirby-Bauer Disc Diffusion Test Results: Table 5, beta-lactamase producing strain; for zone of growth inhibition, average diameter: Table 3, 6-mm disks, 20 μg test compound, 24 hours
# Description: as §1, §2, §3, §4, §5, §6, §7
# MRSA USF655 = assay type: cell-based, Staphylococcus aureus; design: Kirby-Bauer Disc Diffusion Test Results: unit not given here; conditions: for Zones of Inhibition: Table 4, 20 μg disk loading; for Kirby-Bauer Disc Diffusion Test Results: Table 5; for zone of growth inhibition, average diameter: Table 3, 6-mm disks, 20 μg test compound, 24 hours
# Description: as §1, §2, §3, §4, §5, §6, §7
# MRSA USF652 = assay type: cell-based, Staphylococcus aureus; design: Kirby-Bauer Disc Diffusion Test Results: unit not given here; conditions: for Zones of Inhibition: Table 4, 20 μg disk loading; for Kirby-Bauer Disc Diffusion Test Results: Table 5, beta-lactamase producing strain; for zone of growth inhibition, average diameter: Table 3, 6-mm disks, 20 μg test compound, 24 hours
# Description: as §1, §2, §3, §4, §5, §6, §7
# MRSA USF656 = assay type: cell-based, Staphylococcus aureus; design: Kirby-Bauer Disc Diffusion Test Results: unit not given here; conditions: for Zones of Inhibition: Table 4, 20 μg disk loading; for Kirby-Bauer Disc Diffusion Test Results: Table 5, beta-lactamase producing strain; for zone of growth inhibition, average diameter: Table 3, 6-mm disks, 20 μg test compound, 24 hours
# Description: as §1, §2, §3, §4, §5, §6, §7
# MRSA USF659 = assay type: cell-based, Staphylococcus aureus; design: Kirby-Bauer Disc Diffusion Test Results: unit not given here; conditions: for Zones of Inhibition: Table 4, 20 μg disk loading; for Kirby-Bauer Disc Diffusion Test Results: Table 5, beta-lactamase producing strain; for zone of growth inhibition, average diameter: Table 3, 6-mm disks, 20 μg test compound, 24 hours
# Description: as §1, §2, §3, §4, §5, §6, §7
# MRSA USF653 = assay type: cell-based, Staphylococcus aureus; design: Kirby-Bauer Disc Diffusion Test Results: unit not given here; conditions: for Zones of Inhibition: Table 4, 20 μg disk loading; for Kirby-Bauer Disc Diffusion Test Results: Table 5, beta-lactamase producing strain; for zone of growth inhibition, average diameter: Table 3, 6-mm disks, 20 μg test compound, 24 hours
# Description: as §1, §2, §3, §4, §5, §6, §7
# S. simulans (ATCC 11631) = assay type: cell-based, Staphylococcus simulans; conditions: Table 3, 6-mm disks, 20 μg test compound, 24 hours
# Description: as §1, §2, §3, §4
# [1] = system: S. saprophyticus (ATCC 3552); assay type: cell-based, Staphylococcus saprophyticus; conditions: Table 3, 6-mm disks, 20 μg test compound, 24 hours
# Description: as §1, §2, §3, §4
# Micrococcus luteus = assay type: cell-based; conditions: Table 3, 6-mm disks, 20 μg test compound, 24 hours
# Description: as §1, §2, §3, §4
# [2] = system: Staphylococcus aureus (ATCC 25923); assay type: cell-based; conditions: Table 3, 6-mm disks, 20 μg test compound, 24 hours
# Description: as §1, §2, §3, §4
# [3] = system: Staphylococcus epidermidis; assay type: cell-based; conditions: Table 3, 6-mm disks, 20 μg test compound, 24 hours
# Description: as §1, §2, §3, §4
SMILES,Kirby-Bauer Disc Diffusion Test Results (Staph aureus 525),Kirby-Bauer Disc Diffusion Test Results (MRSA USF657),Kirby-Bauer Disc Diffusion Test Results (MRSA USF658),Kirby-Bauer Disc Diffusion Test Results (MRSA USF654),Kirby-Bauer Disc Diffusion Test Results (MRSA USF655),Kirby-Bauer Disc Diffusion Test Results (MRSA USF652),Kirby-Bauer Disc Diffusion Test Results (MRSA USF656),Kirby-Bauer Disc Diffusion Test Results (MRSA USF659),Kirby-Bauer Disc Diffusion Test Results (MRSA USF653),"zone of growth inhibition, average diameter (MRSA USF657) [mm]","zone of growth inhibition, average diameter (MRSA USF658) [mm]","zone of growth inhibition, average diameter (MRSA USF654) [mm]","zone of growth inhibition, average diameter (MRSA USF655) [mm]","zone of growth inhibition, average diameter (MRSA USF652) [mm]","zone of growth inhibition, average diameter (MRSA USF656) [mm]","zone of growth inhibition, average diameter (MRSA USF659) [mm]","zone of growth inhibition, average diameter (MRSA USF653) [mm]","zone of growth inhibition, average diameter (S. simulans (ATCC 11631)) [mm]","zone of growth inhibition, average diameter [1] [mm]","zone of growth inhibition, average diameter (Micrococcus luteus) [mm]",further results
COC1C(=O)N(SC)C1c1ccccc1Cl (racemic) [Methyl-thio],–,–,–,–,–,–,–,–,–,–,–,–,–,–,–,–,–,–,–,–,Zones of Inhibition (Staph aureus 525): 26 mm; Zones of Inhibition (MRSA USF657): 27 mm; Zones of Inhibition (MRSA USF658): 26 mm; Zones of Inhibition (MRSA USF654): 26 mm; Zones of Inhibition (MRSA USF655): 26 mm; Zones of Inhibition (MRSA USF652): 30 mm; Zones of Inhibition (MRSA USF656): 28 mm; Zones of Inhibition (MRSA USF659): 23 mm; Zones of Inhibition (MRSA USF653): 29 mm
COC1C(=O)N(SC)C1c1ccc(C#N)cc1 (racemic) [FIG. 11D],14,10,12,0,12,14,13,12,16,–,–,–,–,–,–,–,–,–,–,–,–
COC1C(=O)N(SC)C1c1ccc(Cl)cc1 (racemic) [FIG. 11H],24,22,20,23,23,24,22,18,28,–,–,–,–,–,–,–,–,–,–,–,–
CCSN1C(=O)C(OC)C1c1ccccc1Cl (racemic) [Ethylthio],–,–,–,–,–,–,–,–,–,–,–,–,–,–,–,–,–,–,–,–,Zones of Inhibition (Staph aureus 525): 26 mm; Zones of Inhibition (MRSA USF657): 29 mm; Zones of Inhibition (MRSA USF658): 30 mm; Zones of Inhibition (MRSA USF654): 27 mm; Zones of Inhibition (MRSA USF655): 28 mm; Zones of Inhibition (MRSA USF652): 33 mm; Zones of Inhibition (MRSA USF656): 29 mm; Zones of Inhibition (MRSA USF659): 30 mm; Zones of Inhibition (MRSA USF653): 33 mm
CSN1C(=O)C(Oc2ccccc2)C1CCc1ccccc1 (racemic) [FIG. 3G],–,–,–,–,–,–,–,–,–,12,12,13,11,14,13,12,12,8,10,17,"zone of growth inhibition, average diameter [2]: 14 mm; zone of growth inhibition, average diameter [3]: 12 mm"
COC1C(=O)N(SC)C1C#Cc1ccccc1 (racemic) [FIG. 11A],27,28,27,27,27,29,30,24,29,–,–,–,–,–,–,–,–,–,–,–,–
COC1C(=O)N(SC)C1c1cccc([N+](=O)[O-])c1 (racemic) [FIG. 11C],15,18,17,16,14,17,18,11,22,–,–,–,–,–,–,–,–,–,–,–,–
COC1C(=O)N(SC)C1C#Cc1ccccc1 (racemic) [FIG. 2B],–,–,–,–,–,–,–,–,–,28,27,27,27,29,30,24,29,19,23,28,"zone of growth inhibition, average diameter [2]: 27 mm; zone of growth inhibition, average diameter [3]: 30 mm"
CSN1C(=O)C(OC(C)=O)C1CCc1ccccc1 (racemic) [FIG. 3F],–,–,–,–,–,–,–,–,–,17,15,17,15,17,18,16,18,11,13,23,"zone of growth inhibition, average diameter [2]: 17 mm; zone of growth inhibition, average diameter [3]: 18 mm"
COC1C(=O)N(SC)C1C=Cc1ccccc1 (racemic) [FIG. 3B],–,–,–,–,–,–,–,–,–,–,–,–,–,–,–,–,–,–,–,–,"zone of growth inhibition, average diameter (MRSA USF657; listed as 3B): 22 mm; zone of growth inhibition, average diameter (MRSA USF658; listed as 3B): 21 mm; zone of growth inhibition, average diameter (MRSA USF654; listed as 3B): 22 mm; zone of growth inhibition, average diameter (MRSA USF655; listed as 3B): 21 mm; zone of growth inhibition, average diameter (MRSA USF652; listed as 3B): 25 mm; zone of growth inhibition, average diameter (MRSA USF656; listed as 3B): 24 mm; zone of growth inhibition, average diameter (MRSA USF659; listed as 3B): 17 mm; zone of growth inhibition, average diameter (MRSA USF653; listed as 3B): 26 mm; zone of growth inhibition, average diameter (S. simulans (ATCC 11631); listed as 3B): 12 mm; zone of growth inhibition, average diameter ([1]; listed as 3B): 16 mm; zone of growth inhibition, average diameter (Micrococcus luteus; listed as 3B): 23 mm; zone of growth inhibition, average diameter ([2]; listed as 3B): 21 mm; zone of growth inhibition, average diameter ([3]; listed as 3B): 26 mm"
